Laboratory results from paper PMC8391312 (Biomedicines, 2021).

Set-up: species or system BALB/cAnNHsd mice
Settings: mouse, in vivo, ip

## insulin: recombinant insulin (Humalog, Eli-Lilly), positive control in glucose tolerance test
  blood glucose levels compared to the PBS and s-cal14.2b groups 30 min after administration: significantly lower
  change of blood glucose levels compared to the PBS control group after five minutes: did not significantly change
